Measurements published in patent US11180510B2, “Xanthine derivatives and uses thereof as inhibitors of bromodomains of BET proteins” (Centre national de la recherche scientifique, priority 2017, dated 2021).
Entries after “also recorded” stand apart in the source; their conditions may differ.

What was measured:
61 bromodomains = test: Thermal shift assay selectivity profile on 61 bromodomains; format: binding; details: compound at 25 μM, 25 µM
Description: (§1) FIG. 3. Thermal Shift Assay (TSA) of 43c. The evaluation was performed on 61 bromodomains. A cut-off at +/−3.5° C. was set.
(§2) TSA “Bromoscan” assays (Reaction Biology) were performed in 384 well RT-PCR plate (BioRad) with a total working volume of 15 μL. The “BromoMelT™, containing the 61 GST- or His-tagged-bromodomains, SYPRO® Orange and a mix compounds as control, was purchased from Reaction Biology. For each point, 3 μL of protein (1×) and 12 μL master mix (buffer+SYPRO® Orange+compound at 25 μM or control mix compounds or DMSO (0.5%)) were mixed in plate. The plate was placed in a CFX384 RTQPC (BioRad), and heated 10 seconds at 25° C., then the temperature was increased from 25° C. to 90° C., by increment of 0.5° C. every 30 seconds. The fluorescence was recorded using FRET filters.

BRD4(BD1) [1] = biological target: T1, BRD4(BD1) (Homo sapiens, UniProt O60885); test: Thermal shift assay (BromoMELT), Brd4 (BD1); format: binding; details: compound at 25 μM, cut-off +/−3.5° C.
Description: as §1, §2

Brd4(BD2) = biological target: T2, Brd4(BD2) (Homo sapiens, UniProt O60885); test: HTRF BET selectivity profile, Brd4(BD2); format: binding
T2 construct: GST tagged bromodomain proteins were purchased from BPS Bioscience; purchased BPS Bioscience
Procedure, shortened: (§3)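 HTRF peptide-displacement assay with GST-tagged bromodomains and histone peptide, 0.5% final DMSO, incubated 3 h, 6 h or overnight at room temperature or 4 °C depending on bromodomain. 665/620 nm ratio read; inhibition scaled between DMSO and no-peptide controls, IC50 in triplicate.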

BRD4(BD1) [2] = biological target: T1, BRD4(BD1); test: BROMOscan assays; format: binding
Brd2(BD2) = biological target: T3, Brd2(BD2) (Homo sapiens, UniProt P25440); test: HTRF BET selectivity profile, Brd2(BD2); format: binding; details: read-out: Brd2(BD2) IC50
T3 construct: GST tagged bromodomain proteins were purchased from BPS Bioscience; purchased BPS Bioscience
T3 sequence (P25440 344-453 limits assumed): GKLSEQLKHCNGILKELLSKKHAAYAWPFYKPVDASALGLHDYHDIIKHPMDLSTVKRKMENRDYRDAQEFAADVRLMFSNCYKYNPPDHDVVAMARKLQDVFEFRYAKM

c-Myc [3] = test: c-Myc HTRF, CEM cell line; format: cell-based
Description: (§4) For additional evaluation of the effect of 43c in cell assays, an influence of the molecule on c-Myc expression was determined by c-Myc HTRF. c-Myc is a proto-oncogene that is often overexpressed in cancer. This leads to the increased expression of many genes, involved in cell proliferation, contributing to cancer development. Downregulation of c-Myc is considered as a promising approach for anticancer treatment.

Brd2(BD1) = biological target: T4, Brd2(BD1) (Homo sapiens, UniProt P25440); test: HTRF BET selectivity profile, Brd2(BD1); format: binding
T4 construct: GST tagged bromodomain proteins were purchased from BPS Bioscience; purchased BPS Bioscience
T4 sequence (P25440 74-180 limits assumed): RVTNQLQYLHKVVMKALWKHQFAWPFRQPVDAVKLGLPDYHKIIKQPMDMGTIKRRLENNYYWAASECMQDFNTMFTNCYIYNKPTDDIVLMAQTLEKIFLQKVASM

c-Myc [4] = test: c-Myc HTRF, Jurkat cell line; format: cell-based, human
Description: as §4

Brdt(BD1) = biological target: T5, Brdt(BD1) (Homo sapiens, UniProt Q58F21); test: HTRF BET selectivity profile, Brdt(BD1); format: binding
T5 construct: GST tagged bromodomain proteins were purchased from BPS Bioscience; purchased BPS Bioscience
Procedure, shortened: as §3

BRD4(BD1) [5] = biological target: T1, BRD4(BD1); test: Isothermal Titration Calorimetry; format: binding; details: Brd4 (BD1), FIG. 1; read-out: KD by ITC (orthogonal assay)
Procedure, shortened: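 […]; general protocol uses 13 injections at 25° C, with protein titrant at 10–15× the compound concentration. Integrated heats fitted to a one-site model for ΔH and KA, with ΔG and TΔS derived from these.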

- ΔTm at 25 µM (BRD4(BD1) [1]): 5.25 °C
- IC50 (Brd4(BD2)): 2310 nM
- Kd (BRD4(BD1) [2]): 32 nM
- selectivity ratio to the first bromodomain, BROMOscan (BRD4(BD1) [2]): up to 313 fold
- IC50 (Brd2(BD2)): 1220 nM
- IC50 (Brd2(BD1); read-out: Brd2(BD1) IC50): 183 nM
- Ratio 2-1 vs 2-2 (Brd2(BD1); selectivity Brd2(BD1) vs Brd2(BD2), HTRF IC50): 7
- IC50 (Brdt(BD1)): 352 nM
- Kd (BRD4(BD1) [5]): 90 nM
Compound: CCn1cnc2c1c(=O)[nH]c(=O)n2Cc1ccc(CNS(=O)(=O)c2ccc(OC3CCOCC3)c(F)c2)cc1 [Compound 43c]
- Bromodomain selectivity profile by thermal shift assay (61 bromodomains): stabilize only BET proteins; also recorded: stabilizes only BRD4 (BD1) and BRD3 (BD1)
- concentration at which c-Myc is downregulated, CEM (c-Myc [3]): 2.6 µM
- concentration at which c-Myc is downregulated, Jurkat (c-Myc [4]): 2.4 µM
